Test results published in patent US8343977B2, “Substituted triazolo-pyrimidine compounds” (ArQule, Inc., priority 2009, dated 2013).

Columns and labels:
[1] = tested on: DLD-1 cancer cells; assay: MTS Assay; assay type: cell-based; conditions: Homo sapiens, DLD-1 cells, 72 h
Method: Cells were maintained at 37° C., 5% CO2 in DMEM media supplemented with 1% fetal bovine serum, penicillin/streptomycin and fungizone (Invitrogen). Cells were seeded into 96-well tissue culture plates at 3000 per well and cultured at 37° C. for 18 hours. Test compounds were dissolved and diluted to 300× in DMSO then diluted 1:40 in DMEM. Cells were incubated with test compounds for 72 hours followed by incubation with tetrazolium compound (3-(4,5-dimethylthiazol-2-yl)-5-(3-carboxymethoxyphenyl)-2-(4-sulfophenyl)-2H-tetrazolium, inner salt; MTS) and the electron coupling reagent, phenazine methosulfate (PMS) for 4 hours. […] The ability of compounds to inhibit cell growth in this assay is correlated with the reduction of dehydrogenase enzyme activity found in metabolically active cells. The measurement of the absorbance of the formazan was assessed using a Victor (Perkin Elmer) microplate reader at 492 nm. The calculated IC50 value is the concentration of the test compound that causes a 50% decrease in the absorbance.

[2] = target: RET kinase (Homo sapiens, UniProt P07949); assay: RET Kinase Activity Assay; assay type: biochemical; conditions: test concentration not given
Method: RET Kinase Activity Assay
(§1) The disclosed compounds were assayed for their ability to inhibit the activity of RET kinase. Nunc Maxwasorb plates were coated with streptavidin by overnight incubation with 100 μL per well of 1 μg/mL Streptavidin in DPBS. Prior to the start of the experiment, the plates were washed with TBST (3×200 μL) and blocked for at least 1 hour by adding 150 μL of 5% BSA/TBST. The plates were washed with TBST (3×200 μL/well) and left dry immediately before the capture step.
(§2) The test articles and controls (Staurosporine and Sutent) were prepared using the following assay buffer at 3× desired final concentration (50 mM Trwas-HCl, 0.02 mg/mL BSA, 10 mM MgCl2, 0.1 mM Na3VO4, 1 mM EGTA, 75 μM ATP0.01% NP-40, 2 mM DTT in 10% glycerol/water). In a reaction plate, were added rapidly 20 μL test article (or control) and 20 μL RET (0.25 ng/μL final concentration). The plate was incubated for 15 minutes. To the reaction plate was added 20 μL of Pyk-2 (0.25 ng/μL final concentration). The plate was incubated at room temperature for one hour.
(§3) From the reaction plate, 50 μL was transferred to the streptavidin coated plate. The capture plate was incubated at room temperature for 30 minutes then washed 6× with TBST. To the capture plate was added 100 μL/well of Cell Signaling anti-phospho tyrosine at a dilution of 1:3000 in 2% BSA/TBST. The plate was incubated for one hour at room temperature then washed 6× with TBST. To the capture plate was added 100 μL/well of Alkaline Phosphatase Tagged Goat anti Mouse Antibody at a dilution of 1:4000 in 2% BSA/TBST. The plate was incubated for one hour at room temperature then washed 6× with TBST. The fluorescent readout was initiated by the addition of 100 μL/well of Attophos reagent (6 mg/10 mL). The reading was done on the Perkin Elmer Envwasion system.

[3] = target: T1, Tec kinase (Homo sapiens, UniProt P42680); assay: Tec Kinase Activity Assay; assay type: biochemical; conditions: test concentration not given
T1 sequence (P42680 1-631): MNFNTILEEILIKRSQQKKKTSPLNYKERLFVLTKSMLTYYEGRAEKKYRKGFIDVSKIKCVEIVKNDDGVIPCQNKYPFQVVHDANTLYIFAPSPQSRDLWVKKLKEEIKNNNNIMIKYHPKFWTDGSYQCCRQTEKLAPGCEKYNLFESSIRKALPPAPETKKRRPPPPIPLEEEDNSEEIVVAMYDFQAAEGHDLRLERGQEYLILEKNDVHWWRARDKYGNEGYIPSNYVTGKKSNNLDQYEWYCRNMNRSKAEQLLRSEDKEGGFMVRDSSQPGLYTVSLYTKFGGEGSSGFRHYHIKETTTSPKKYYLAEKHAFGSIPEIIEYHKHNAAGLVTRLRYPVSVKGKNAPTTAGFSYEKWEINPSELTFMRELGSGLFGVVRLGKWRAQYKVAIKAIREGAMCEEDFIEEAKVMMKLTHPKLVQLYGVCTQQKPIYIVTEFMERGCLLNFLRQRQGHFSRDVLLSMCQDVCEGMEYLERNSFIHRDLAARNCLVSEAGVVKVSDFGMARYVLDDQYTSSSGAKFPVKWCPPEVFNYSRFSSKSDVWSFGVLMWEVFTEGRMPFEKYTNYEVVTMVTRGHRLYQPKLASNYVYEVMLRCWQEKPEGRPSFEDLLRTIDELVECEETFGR
Method: Tec Kinase Activity Assay
as §1, with “Tec” for “RET”, “Maxisorb” for “Maxwasorb”
as §2, with “Tris-HCl,” for “Trwas-HCl,”, “plate” for “plate,”, “TEC 0.25 ng/μL.” for “RET (0.25 ng/μL final concentration).”, “30” for “15”, “0.5 ng/μL.” for “(0.25 ng/μL final concentration).”, “two hours.” for “one hour.”
as §3, with “Envision” for “Envwasion”

RET kinase, sequence (P07949 29-1114): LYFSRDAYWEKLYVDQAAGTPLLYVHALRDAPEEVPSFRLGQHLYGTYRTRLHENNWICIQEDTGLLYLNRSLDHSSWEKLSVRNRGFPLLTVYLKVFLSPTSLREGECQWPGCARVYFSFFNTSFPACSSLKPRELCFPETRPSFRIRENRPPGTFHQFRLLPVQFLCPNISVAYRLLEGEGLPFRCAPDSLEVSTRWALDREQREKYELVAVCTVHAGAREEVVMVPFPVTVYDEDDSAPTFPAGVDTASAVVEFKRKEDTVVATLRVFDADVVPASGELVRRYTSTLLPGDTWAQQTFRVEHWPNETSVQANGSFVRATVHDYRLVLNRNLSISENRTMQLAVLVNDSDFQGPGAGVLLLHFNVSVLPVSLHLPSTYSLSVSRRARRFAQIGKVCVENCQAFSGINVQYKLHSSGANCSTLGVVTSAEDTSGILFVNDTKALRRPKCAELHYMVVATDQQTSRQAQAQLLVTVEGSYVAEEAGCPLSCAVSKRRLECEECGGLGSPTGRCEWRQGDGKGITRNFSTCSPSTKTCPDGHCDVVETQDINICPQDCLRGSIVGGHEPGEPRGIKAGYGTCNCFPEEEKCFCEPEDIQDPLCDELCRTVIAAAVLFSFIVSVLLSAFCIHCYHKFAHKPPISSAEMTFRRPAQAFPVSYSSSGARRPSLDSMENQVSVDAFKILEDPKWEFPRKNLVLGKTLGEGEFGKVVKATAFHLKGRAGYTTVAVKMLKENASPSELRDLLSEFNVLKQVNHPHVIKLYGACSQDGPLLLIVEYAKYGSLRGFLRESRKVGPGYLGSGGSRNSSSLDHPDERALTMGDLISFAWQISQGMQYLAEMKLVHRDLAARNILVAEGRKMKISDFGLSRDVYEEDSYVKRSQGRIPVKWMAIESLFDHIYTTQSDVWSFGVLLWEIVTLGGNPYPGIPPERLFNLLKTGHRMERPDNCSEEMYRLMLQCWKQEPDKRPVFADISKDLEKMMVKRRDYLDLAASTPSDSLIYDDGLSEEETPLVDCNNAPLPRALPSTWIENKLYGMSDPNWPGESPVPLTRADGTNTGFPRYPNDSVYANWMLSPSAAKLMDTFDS

SMILES | Kinase Activity (RET kinase inhibition) [2] | Kinase Activity (Tec kinase inhibition) [3] | inhibition at 10 µM [1] [%]
CS(=O)(=O)c1ccc(-c2nnc3ncc(-c4ccc(Oc5ccccc5)cc4)cn23)cc1 [Compound 7, 3-(4-(methylsulfonyl)phenyl)-6-(4-phenoxyphenyl)-[1,2,4]triazolo[4,3-a]pyrimidine] | A (A indicates 75-100% inhibition) | A (A indicates 75-100% inhibition) | 98
c1ccc(Oc2ccccc2-c2cnc3nnc(-c4ccncc4)n3c2)cc1 [Compound 5, 6-(2-phenoxyphenyl)-3-(pyridin-4-yl)-[1,2,4]triazolo[4,3-a]pyrimidine] | B (B indicates 50-75% inhibition) | B (B indicates 50-75% inhibition) | 13
c1ccc(-c2nnc3ncc(-c4cccc5[nH]ccc45)cn23)cc1 [Compound 3, 6-(1H-indol-4-yl)-3-phenyl-[1,2,4]triazolo[4,3-a]pyrimidine] | A (A indicates 75-100% inhibition) | A (A indicates 75-100% inhibition) | 98
Cc1ccc(-c2cnc3nnc(-c4ccc(S(C)(=O)=O)cc4)n3c2)c2ccccc12 [Compound 10, 6-(4-methylnaphthalen-1-yl)-3-(4-(methylsulfonyl)phenyl)-[1,2,4]triazolo[4,3-a]pyrimidine] | A (A indicates 75-100% inhibition) | – | –
CS(=O)(=O)c1ccc(-c2nnc3ncc(-c4ccccc4Oc4ccccc4)cn23)cc1 [Compound 11, 3-(4-(methylsulfonyl)phenyl)-6-(2-phenoxyphenyl)-[1,2,4]triazolo[4,3-a]pyrimidine] | A (A indicates 75-100% inhibition) | – | –
COc1ccc(-c2cnc3nnc(-c4ccc(CC(C)C)cc4)n3c2)cc1 [Compound 8, 3-(4-isobutylphenyl)-6-(4-methoxyphenyl)-[1,2,4]triazolo[4,3-a]pyrimidine] | – | B (B indicates 50-75% inhibition) | 74

Now from value to compound, other results behind:

Kinase Activity (RET kinase inhibition) [2] | Kinase Activity (Tec kinase inhibition) [3] | SMILES | inhibition at 10 µM [1] [%]
– | A (A indicates 75-100% inhibition) | Brc1cnc2nnc(-c3ccccc3)n2c1 [Compound 1, 6-bromo-3-phenyl-[1,2,4]triazolo[4,3-a]pyrimidine] | –
A (A indicates 75-100% inhibition) | – | c1cc(-c2cnc3nnc(-c4ccncc4)n3c2)c2cc[nH]c2c1 [Compound 4, 6-(1H-indol-4-yl)-3-(pyridin-4-yl)-[1,2,4]triazolo[4,3-a]pyrimidine] | –
A (A indicates 75-100% inhibition) | B (B indicates 50-75% inhibition) | CC(C)(C)c1ccc(-c2cnc3nnc(-c4ccc(C#N)cc4)n3c2)cc1 [Compound 9, 4-(6-(4-tert-butylphenyl)-[1,2,4]triazolo[4,3-a]pyrimidin-3-yl)benzonitrile] | 39
– | B (B indicates 50-75% inhibition) | Brc1cnc2nnc(-c3ccc(-c4cccnc4)cc3)n2c1 [Compound 2, 6-bromo-3-(4-(pyridin-3-yl)phenyl)-[1,2,4]triazolo[4,3-a]pyrimidine] | –
A (A indicates 75-100% inhibition) | A (A indicates 75-100% inhibition) | c1ccc(Oc2ccc(-c3cnc4nnc(-c5ccncc5)n4c3)cc2)cc1 [Compound 6, 6-(4-phenoxyphenyl)-3-(pyridin-4-yl)-[1,2,4]triazolo[4,3-a]pyrimidine] | –
